Laboratory results published in US20070167412A1, “HALOCOMBSTATINS AND METHODS OF SYNTHESIS THEREOF” (ARIZONA BOARD OF REGENTS, priority 2003, published 2007).
Converted amounts (≈) assume the structure as drawn.

How the values were obtained:
Type in all cases: cell-based
Lung-NSC NCI-H460 = experiment: human cancer cell growth inhibition, sulforhodamine B assay; conditions: Homo sapiens, NCI-H460; Table I; 48 hours; read-out: Human cancer cell line inhibition (GI50) Lung-NSC NCI-H460
Procedure, shortened: (§1)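 NCI sulforhodamine B protocol: cells exposed to compounds for 48 h, then fixed with trichloroacetic acid, stained with sulforhodamine B and read on a microplate reader.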

Pancreas BXPC-3 = experiment: as above; conditions: Homo sapiens, BXPC-3; Table I; 48 hours; read-out: Human cancer cell line inhibition (GI50) Pancreas-a BXPC-3
Procedure, shortened: as §1

Breast MCF-7 = experiment: as above; conditions: Homo sapiens, MCF7; Table I; 48 hours; read-out: Human cancer cell line inhibition (GI50) Breast adn MCF-7
Procedure, shortened: as §1

Colon KM20L2 = experiment: as above; conditions: Homo sapiens, KM-20L2; Table I; 48 hours; read-out: Human cancer cell line inhibition (GI50) Colon KM20L2
Procedure, shortened: as §1

Prostate DU-145 = experiment: as above; conditions: Homo sapiens, DU-145; Table I; 48 hours; read-out: Human cancer cell line inhibition (GI50) Prostate DU-145
Procedure, shortened: as §1

CNS SF268 = experiment: as above; conditions: Homo sapiens, SF-268; Table I; 48 hours; read-out: Human cancer cell line inhibition (GI50) CNS SF268
Procedure, shortened: as §1

[1] = test system: human umbilical vein endothelial cells (HUVEC); experiment: HUVEC growth inhibition, sulforhodamine B assay; conditions: HUVEC
Procedure, shortened: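 HUVEC grown in EGM-2 medium were assessed for growth inhibition following NCI Developmental Therapeutics Program protocols. Read-out was the standard sulforhodamine B assay. IC50/ED50 (concentration giving 50% inhibition) was derived from plotted data.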

**Q.** How did the GI50 (Lung-NSC NCI-H460) turn out when `COc1ccc(/C=C\c2cc(I)c(OC)c(OC)c2)cc1O` [Compound 14a, 3-Iodo-4,4′,5-trimethoxy-3′-hydroxy-z-stilbene] was run?
**A.** 0.19 ng/mL (≈ 0.461 nM)

**Q.** And the GI50 (Pancreas BXPC-3)?
**A.** 110 ng/mL (≈ 267 nM)

**Q.** And the GI50 (Breast MCF-7)?
**A.** 0.22 ng/mL (≈ 0.534 nM)

**Q.** And the GI50 (Colon KM20L2)?
**A.** 150 ng/mL (≈ 364 nM)

**Q.** And the GI50 (Prostate DU-145)?
**A.** 0.52 ng/mL (≈ 1.26 nM)

**Q.** What about the GI50 (CNS SF268) of the same molecule?
**A.** 0.35 ng/mL (≈ 0.849 nM)

**Q.** And the “Relative % Growth” value ([1]; 0.00001 μg/ml)?
**A.** 90%

**Q.** And the “Relative % Growth” value ([1]; 0.0001 μg/ml)?
**A.** 18%

**Q.** What about the “Relative % Growth” value ([1]; 0.001 μg/ml) of the same molecule?
**A.** 14%

**Q.** And the “Relative % Growth” value ([1]; 0.01 μg/ml)?
**A.** 14%

**Q.** What about the GI50 ([1]; Homo sapiens, Table V, read-out: Human Umbilical Vein Endothelial Cell (HUVEC) Inhibition Values (GI50)) of the same molecule?
**A.** 0.04 ng/mL (≈ 0.097 nM)
